The source of these data is paper PMC12845312, “Hydrazonylthiazole Derivatives as Dual EGFR and ALR2 Inhibitors: Design, Synthesis, and Comprehensive In Vitro and In Silico Evaluation for Potential Anticancer Activity” (Pharmaceuticals, 2025).

In assay [1] the target is ALR2 (Homo sapiens, UniProt P15121). Nature of the assay: In vitro ALR2 inhibition assay (NADPH absorbance, DL-glyceraldehyde substrate). The format is biochemical. Conditions: for Ki: ALR2, DL-glyceraldehyde substrate, mean ±SEM (n = 3). The method, then: The protocol followed earlier steady-state kinetic studies with minor adjustments. Measurements were performed at 37 °C in 10 mM sodium phosphate buffer (pH 7.4) in 1 mL quartz cuvettes (1 cm path length). Each reaction mixture contained 0.11 mM NADPH and DL-glyceraldehyde at final concentrations between 0.071 and 0.376 mM. Test compounds were introduced from DMSO stock solutions, and the total DMSO content was kept below 1% (v/v).
Prior to substrate addition, the enzyme and inhibitor were combined and left on ice for 1 min to allow initial complex formation. The reaction was initiated by adding DL-glyceraldehyde, and the decrease in absorbance at 340 nm (ε340 = 6.22 mM^−1 cm^−1) was recorded for 180 s using a calibrated UV-Vis instrument. […] All values represent the mean of triplicate determinations, and the entire experiment was repeated on three separate days (n = 3). Reaction rates were calculated from the linear segment of each kinetic trace.
For selected compounds, including compound 5, extended kinetic analyses were conducted by varying both substrate and inhibitor levels. The resulting Lineweaver-Burk plots (1/v vs. 1/[S]) were used to interpret the inhibition pattern (Figure 18). Secondary replots were used to extract KI values by linear regression. Data processing and curve fitting were performed in GraphPad Prism (v10.0), and kinetic parameters are expressed as mean ± SEM.

The subject of assay [2] is MCF-7 cells. The note with it: cited from earlier work.
Assay [3] addresses T1, EGFR (Homo sapiens, UniProt P00533).
T1 construct: purchased Promega V3831
Nature of the assay: EGFR kinase inhibition (Promega EGFR TK kit, ADP-Glo). It is filed as biochemical. The method, then: (§1) EGFR kinase activity was monitored using the Promega EGFR TK kit (Cat. No. V3831) at final test concentrations of 1 µM and 10 µM. HER-2 activity was assessed under analogous conditions using the Promega HER-2 TK kit (Cat. No. V9381) at 10 µM, in accordance with earlier studies. For each assay, the enzyme and its substrate were diluted in a mixture containing 95 µL of 2.5× kinase buffer and 15 µL of 100 µM ATP. Reactions were assembled in 384-well plates by dispensing 4 µL of each compound solution (0.1–100 µM) into wells containing 8 µL of the enzyme/ATP/substrate preparation. Plates were incubated for 1.5 h at room temperature, after which ADP formation, reflecting kinase turnover, was quantified using the ADP-Glo™ detection system (Promega, Madison, WI, USA). Luminescence was measured with an Infinite M1000 reader (Tecan, Grödig, Austria).

The test system of assay [4] is A549 (NSCLC) cells. Nature of the assay: MTT cytotoxicity assay in A549 cells. The format is cell-based. The note with it: for reduction in A549 viability: 10 µM; for IC50: Homo sapiens, A549. The protocol: (§2) A549 (ATCC, Manassas, VA, USA) and MCF-7 (ATCC, VA, USA) cells were grown in Dulbecco’s Modified Eagle Medium (DMEM; Wako, Osaka, Japan) containing 10% fetal bovine serum (FBS; Equitech-Bio, Kerrville, TX, USA). Jurkat T-cells (ATCC, VA, USA) were maintained in RPMI-1640 medium (Wako Pure Chemical Industries, Osaka, Japan) supplemented with 10% FBS, while PBMCs (Precision Bioservices, Frederick, MD, USA) were expanded in the same medium supplemented with 10% human AB serum (Gemini, Woodland, CA, USA). Streptomycin was added to all culture media at a final concentration of 89 µg/mL (Meiji Seika Pharma, Tokyo, Japan). All cells were kept at 37 °C under humidified conditions with 5% CO2. For viability measurements, A549 and MCF-7 cells were seeded into 24-well plates, whereas PBMCs were dispensed into 96-well plates (Iwaki, Asahi Glass, Chiba, Japan) at initial densities of 4 × 10^4 cells/mL and 5 × 10^5 cells/mL, respectively. […] The DMSO content was kept constant at 1% in all wells. Cell viability was assessed using the MTT colorimetric assay (Dojindo, Kumamoto, Japan), following established procedures with minor protocol refinements previously reported in the literature.

The subject of assay [5] is A549 cells. The assay can be described thus: Apoptosis, Annexin V/ethidium homodimer staining. The format is cell-based. The note with it: IC50 concentration, 24 h. The method, then: After exposure, cells were detached using 0.05% trypsin, rinsed twice with 1× binding buffer, and prepared for fluorescence-based apoptotic assessment. The resulting pellet was suspended in a staining mixture consisting of 50 µL of 1× binding buffer, along with 4 µL each of FITC-Annexin V, ethidium homodimer III, and Hoechst 33342. The suspension was incubated for 20 min at room temperature in the dark to ensure proper labeling. Following staining, cells were washed again with binding buffer, fixed in 2% paraformaldehyde, and briefly rinsed with phosphate-buffered saline (PBS). Apoptotic and necrotic populations were visualized and recorded using a Biorevo BZ-9000 fluorescence microscope (Keyence, Osaka, Japan), following procedures adapted from previously reported workflows.

Assay [6] relates to MCF-7 (breast cancer) cells. The assay can be described thus: MTT cytotoxicity assay in MCF-7 cells. The note with it: for reduced viability in MCF-7 cells: 10 µM; for IC50: Homo sapiens, MCF7. The format is cell-based. The method, then: as §2
Assay [7] has as its system peripheral blood mononuclear cells (PBMCs). The assay can be described thus: MTT cytotoxicity assay in PBMCs (selectivity). It is filed as cell-based. Conditions: for SI (Selectivity Index): IC50 for PBMC/IC50 for Jurkat cell line; for IC50: PBMC, MTT assay. The method, then:
(§3) A549 (ATCC, Manassas, VA, USA) and MCF-7 (ATCC, VA, USA) cells were grown in Dulbecco’s Modified Eagle Medium (DMEM; Wako, Osaka, Japan) containing 10% fetal bovine serum (FBS; Equitech-Bio, Kerrville, TX, USA). Jurkat T-cells (ATCC, VA, USA) were maintained in RPMI-1640 medium (Wako Pure Chemical Industries, Osaka, Japan) supplemented with 10% FBS, while PBMCs (Precision Bioservices, Frederick, MD, USA) were expanded in the same medium supplemented with 10% human AB serum (Gemini, Woodland, CA, USA). Streptomycin was added to all culture media at a final concentration of 89 µg/mL (Meiji Seika Pharma, Tokyo, Japan). All cells were kept at 37 °C under humidified conditions with 5% CO2. For viability measurements, A549 and MCF-7 cells were seeded into 24-well plates, whereas PBMCs were dispensed into 96-well plates (Iwaki, Asahi Glass, Chiba, Japan) at initial densities of 4 × 10^4 cells/mL and 5 × 10^5 cells/mL, respectively. […] Concentrated stock solutions were prepared in dimethyl sulfoxide (DMSO; Wako Pure Chemical Industries) and diluted with culture medium to final assay concentrations ranging from […]. The DMSO content was kept constant at 1% in all wells. Cell viability was assessed using the MTT colorimetric assay (Dojindo, Kumamoto, Japan), following established procedures with minor protocol refinements previously reported in the literature.

Assay [8] relates to Jurkat leukemia cells. The assay can be described thus: MTT cytotoxicity assay in Jurkat cells. Conditions: Homo sapiens. The format is cell-based. The method, then:
as §3

The target in assay [9] is T2, HER-2 (Homo sapiens, UniProt P04626).
T2 construct: purchased Promega V9381
Nature of the assay: HER-2 kinase inhibition (Promega HER-2 TK kit, ADP-Glo). The format is biochemical. The method, then:
as §1

Assay [10] deals with T1, EGFR. The note with it: read-out: EGFR inhibition IC50 (converted); cited from earlier work.

Read-outs that look alike come from different tables or passages of the source.

T1 sequence (P00533 25-1210): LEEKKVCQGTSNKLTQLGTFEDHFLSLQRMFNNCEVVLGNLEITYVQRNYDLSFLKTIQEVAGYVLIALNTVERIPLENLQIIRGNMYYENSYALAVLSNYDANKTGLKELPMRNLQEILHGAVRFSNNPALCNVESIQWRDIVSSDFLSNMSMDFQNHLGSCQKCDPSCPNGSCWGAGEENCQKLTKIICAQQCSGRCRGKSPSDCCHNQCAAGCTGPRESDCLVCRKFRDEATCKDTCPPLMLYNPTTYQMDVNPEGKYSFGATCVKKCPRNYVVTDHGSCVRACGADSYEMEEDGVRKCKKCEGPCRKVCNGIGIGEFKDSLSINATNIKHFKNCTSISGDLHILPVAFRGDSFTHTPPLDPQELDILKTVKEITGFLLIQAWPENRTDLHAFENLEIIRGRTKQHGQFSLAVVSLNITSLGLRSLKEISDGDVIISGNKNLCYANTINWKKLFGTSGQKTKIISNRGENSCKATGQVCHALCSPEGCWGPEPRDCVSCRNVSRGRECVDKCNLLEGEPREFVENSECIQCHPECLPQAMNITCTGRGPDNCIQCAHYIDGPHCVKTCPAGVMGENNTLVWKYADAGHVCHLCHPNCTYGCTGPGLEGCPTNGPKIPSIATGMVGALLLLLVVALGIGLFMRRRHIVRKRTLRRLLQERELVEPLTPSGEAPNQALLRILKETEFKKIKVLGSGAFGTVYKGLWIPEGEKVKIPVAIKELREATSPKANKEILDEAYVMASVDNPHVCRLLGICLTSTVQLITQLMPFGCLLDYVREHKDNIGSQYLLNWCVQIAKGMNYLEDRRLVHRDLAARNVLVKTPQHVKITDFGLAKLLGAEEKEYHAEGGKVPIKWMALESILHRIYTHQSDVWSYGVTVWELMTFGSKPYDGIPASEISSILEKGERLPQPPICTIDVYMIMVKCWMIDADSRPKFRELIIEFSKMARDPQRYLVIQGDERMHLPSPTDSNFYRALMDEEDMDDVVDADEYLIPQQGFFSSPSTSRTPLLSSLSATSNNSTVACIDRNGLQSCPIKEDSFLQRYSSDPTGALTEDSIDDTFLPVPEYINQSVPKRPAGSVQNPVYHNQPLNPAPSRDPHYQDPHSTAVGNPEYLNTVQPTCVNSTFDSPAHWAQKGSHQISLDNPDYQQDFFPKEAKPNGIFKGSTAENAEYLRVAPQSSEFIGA
T2 sequence (P04626 23-1255): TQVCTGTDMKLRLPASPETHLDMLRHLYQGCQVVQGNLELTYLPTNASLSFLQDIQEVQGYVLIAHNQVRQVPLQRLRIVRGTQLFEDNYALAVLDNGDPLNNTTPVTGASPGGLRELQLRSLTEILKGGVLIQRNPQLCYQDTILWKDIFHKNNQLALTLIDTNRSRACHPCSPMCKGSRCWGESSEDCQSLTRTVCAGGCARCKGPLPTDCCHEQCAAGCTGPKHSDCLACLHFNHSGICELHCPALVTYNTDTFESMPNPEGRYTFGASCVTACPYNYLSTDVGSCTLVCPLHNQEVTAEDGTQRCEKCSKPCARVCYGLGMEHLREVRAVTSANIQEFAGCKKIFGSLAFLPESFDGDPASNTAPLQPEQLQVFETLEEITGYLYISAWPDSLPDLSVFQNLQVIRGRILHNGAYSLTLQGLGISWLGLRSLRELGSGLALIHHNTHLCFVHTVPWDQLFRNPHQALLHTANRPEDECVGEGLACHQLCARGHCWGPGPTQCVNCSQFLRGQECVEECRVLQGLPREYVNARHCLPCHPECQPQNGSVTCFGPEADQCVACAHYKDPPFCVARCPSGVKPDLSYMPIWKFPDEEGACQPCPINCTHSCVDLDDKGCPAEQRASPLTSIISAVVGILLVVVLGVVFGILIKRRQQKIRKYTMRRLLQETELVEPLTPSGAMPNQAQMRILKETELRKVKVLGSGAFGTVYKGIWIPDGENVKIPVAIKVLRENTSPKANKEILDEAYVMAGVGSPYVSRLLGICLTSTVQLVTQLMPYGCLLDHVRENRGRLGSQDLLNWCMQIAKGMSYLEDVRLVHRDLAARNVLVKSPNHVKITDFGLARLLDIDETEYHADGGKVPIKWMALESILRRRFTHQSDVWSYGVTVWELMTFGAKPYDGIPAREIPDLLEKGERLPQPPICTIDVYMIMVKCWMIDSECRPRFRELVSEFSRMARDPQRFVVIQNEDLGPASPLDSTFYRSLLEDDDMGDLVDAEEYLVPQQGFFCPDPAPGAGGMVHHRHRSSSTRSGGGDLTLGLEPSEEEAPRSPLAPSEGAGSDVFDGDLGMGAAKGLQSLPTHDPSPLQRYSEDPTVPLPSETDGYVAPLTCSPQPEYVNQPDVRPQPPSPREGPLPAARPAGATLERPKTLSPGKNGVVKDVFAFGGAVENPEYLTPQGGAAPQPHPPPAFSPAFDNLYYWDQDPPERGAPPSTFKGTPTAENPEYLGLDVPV

In turn, `Cn1ccnc1/C=N/Nc1nc(-c2ccc(S(C)(=O)=O)cc2)cs1` [Compound 10, 1-[(4-(4-Methylsulfonylphenyl)-1,3-thiazol-2-yl)amino]-2-[(1-methyl-1H-imidazol-2-yl)methylidene]hydrazine] yielded a Ki in [1] of 240 ± 20 nM.
In the case of `Cn1c(-c2csc(NN=C3CCCC3)n2)nc2ccccc21` [Compound 4a], the IC50 in assay [2] (read-out: IC50 against MCF-7 cells) was 6300 nM.
`Cn1ccnc1/C=N/Nc1nc(-c2ccc(-c3cccs3)cc2)cs1` [Compound 13, 1-[(4-(4-(Thiophen-2-yl)phenyl)-1,3-thiazol-2-yl)amino]-2-[(1-methyl-1H-imidazol-2-yl)methylidene]hydrazine]: the inhibition at 1 µM in assay [3] is 45%. In addition, the inhibition at 10 µM in assay [3] is 74%; in [9], 1.89%. The “reduction in A549 viability” value in assay [4] is on record as ~ 67%. Besides, the IC50 in [4] amounted to 1330 ± 410 nM; in assay [6], 1740 ± 380 nM; in assay [7], 229000 ± 26200 nM; in [8], 1650 ± 400 nM. In addition, the apoptosis induction entry in assay [5] is given as “triggered apoptosis in A549 cells significantly compared with lapatinib”. The “reduced viability in MCF-7 cells” value in [6] is on record as 69%. For the same molecule, the “SI (Selectivity Index)” value in [7] was 138.90. In assay [1], this molecule registered a Ki of 2480 ± 140 nM.
`Cn1ccnc1/C=N/Nc1nc(-c2ccc(F)cc2)cs1` [Compound 3, 1-[(4-(4-Fluorophenyl)-1,3-thiazol-2-yl)amino]-2-[(1-methyl-1H-imidazol-2-yl)methylidene]hydrazine] showed a Ki in [1] of 440 ± 90 nM.
Consider `Cn1ccnc1/C=N/Nc1nc(-c2ccc3ccccc3c2)cs1` [Compound 11, 1-[(4-(Naphthalen-2-yl)-1,3-thiazol-2-yl)amino]-2-[(1-methyl-1H-imidazol-2-yl)methylidene]hydrazine], for which the Ki in assay [1] turned out to be 1910 ± 100 nM.
In assay [1], `Cc1ccc(-c2csc(N/N=C/c3nccn3C)n2)cc1` [Compound 7, 1-[(4-(4-Methylphenyl)-1,3-thiazol-2-yl)amino]-2-[(1-methyl-1H-imidazol-2-yl)methylidene]hydrazine] showed an inhibitory constant (Ki) of 280 ± 30 nM. Against the preceding molecule, the Ki is about 6.8-fold lower.
Consider `CCOC(=O)c1s/c(=N/N=C(\C)c2ccc(Nc3ccnc4cc(Cl)ccc34)cc2)n(C)c1C` [Compound 6b], for which the IC50 was 18.9 nM in [10] and 5350 nM in assay [2] (read-out: IC50 against MCF-7 cell line).
`COc1ccc(-c2csc(N/N=C/c3nccn3C)n2)cc1` [Compound 8, 1-[(4-(4-Methoxyphenyl)-1,3-thiazol-2-yl)amino]-2-[(1-methyl-1H-imidazol-2-yl)methylidene]hydrazine]: the inhibition constant (Ki) in [1] was found to be 210 ± 20 nM.
With `C/C(=N\Nc1nc(C)c(/N=N/c2ccc(Cl)cc2)s1)c1cccs1` [Compound 5j], the values for the IC50 in assay [10] and in assay [2] (read-out: IC50 toward MCF-7 cells) were 82.8 nM and 10900 nM, respectively.
In turn, `Cn1ccnc1/C=N/Nc1nc(-c2ccc(Cl)cc2)cs1` [Compound 4, 1-[(4-(4-Chlorophenyl)-1,3-thiazol-2-yl)amino]-2-[(1-methyl-1H-imidazol-2-yl)methylidene]hydrazine] showed a Ki in assay [1] of 280 ± 30 nM.
In assay [1], `Cn1ccnc1/C=N/Nc1nc(-c2ccc(C#N)cc2)cs1` [Compound 6, 1-[(4-(4-Cyanophenyl)-1,3-thiazol-2-yl)amino]-2-[(1-methyl-1H-imidazol-2-yl)methylidene]hydrazine] returned a Ki of 210 ± 20 nM.
The same measure, in the same setting: the result for `Cn1ccnc1/C=N/Nc1nc(-c2ccc(C(F)(F)F)cc2)cs1` [Compound 9, 1-[(4-(4-Trifluoromethylphenyl)-1,3-thiazol-2-yl)amino]-2-[(1-methyl-1H-imidazol-2-yl)methylidene]hydrazine] reads 910 ± 50 nM.
On the same count and under the same terms, in the case of `Cn1ccnc1/C=N/Nc1nc(-c2ccc([N+](=O)[O-])cc2)cs1` [Compound 2, 1-[(4-(4-Nitrophenyl)-1,3-thiazol-2-yl)amino]-2-[(1-methyl-1H-imidazol-2-yl)methylidene]hydrazine] it was 1830 ± 110 nM.
In [3], `Cn1ccnc1/C=N/Nc1nc(-c2ccc(Br)cc2)cs1` [Compound 5] returned an inhibition at 1 µM of 23% and an inhibition at 10 µM of 51%. For the same molecule, in [4], the “reduction in A549 viability” value is ~ 59% and half-maximal inhibition (IC50) was put at 6870 ± 2100 nM. Moreover, in [6], the “reduced viability in MCF-7 cells” value was 67% and 2780 ± 2850 nM corresponded to half-maximal inhibition (IC50). Besides, in assay [7], the “SI (Selectivity Index)” value turned out to be 37.39 and the IC50 was 72500 ± 14000 nM. In addition, the half-inhibitory concentration (IC50) in [8] is 1940 ± 650 nM. This molecule also showed a Ki in [1] of 80 ± 10 nM. In addition, the “inhibition profile (Lineweaver–Burk)” value in assay [1] (toward DL-glyceraldehyde) was “competitive inhibition profile”.
For the molecule `Cn1ccnc1/C=N/Nc1nc(-c2ccccc2)cs1` [Compound 1, 1-[(4-Phenyl-1,3-thiazol-2-yl)amino]-2-[(1-methyl-1H-imidazol-2-yl)methylidene]hydrazine], the Ki in assay [1] came out at 2640 ± 160 nM.
For the molecule `CS(=O)(=O)CCNCc1ccc(-c2ccc3ncnc(Nc4ccc(OCc5cccc(F)c5)c(Cl)c4)c3c2)o1` [Lapatinib, lapatinib, reference compound], the IC50 in [4] came to 18000 ± 5120 nM; in assay [6], 8430 ± 2850 nM; in assay [7], 9790 ± 2690 nM; in assay [8], 1350 ± 410 nM. Besides, the apoptosis induction entry in assay [5] was “highly significant increases vs. untreated control”. This molecule displayed an inhibition at 10 µM in assay [9] of 93%.
Turning to `Cn1ccnc1/C=N/Nc1nc(-c2ccc3c(c2)OCO3)cs1` [Compound 12, 1-[(4-(Benzo[d][1,3]dioxol-5-yl)-1,3-thiazol-2-yl)amino]-2-[(1-methyl-1H-imidazol-2-yl)methylidene]hydrazine], the Ki in [1] came to 2010 ± 100 nM.
